This assay deals with P-388 leukemic cells. Nature of the assay: Antitumor activity against mouse leukemia P-388, increase in life span (ILS). Format: in vivo. Also on record: dose or concentration left out as unconfirmed. The note with it: P388, ip, 120 h, Table 2, i.p., once a day for 5 days, BDF1 mice. On the procedure: Antitumor activity against mouse leukemia P-388 carcinoma is shown in the ensuring examples, according to the following list of specifications:
2. Animal: BDF1 mice, age 5 weeks, male, Charles River Inc., 5 mice in an experimental group at 7 control mice.
3. Tumor cells: P-388 leukemic cells; 1×10^6 /0.2 ml are inoculated intraperitoneally in BDF1 mice of the experimental group.
4. Preparation of samples and administration of drugs:
Samples are suspended in Tris-HCl saline solution by sonification. 0.1 ml/10g body weight is administered.
Administration: starting one day after inoculation of tumor cells, once a day for 5 days intraperiotoneally.
5. Increase in life span (ILS) is calculated by the following equation: [formula]
Average survival date in control group is 7.86 days (7.57-7.93 days).

As usually defined, the ILS is how much longer treated animals lived than controls. In turn, `CCCCCCCCCCCCCCCCOCC(COP(=O)(O)OC[C@H]1O[C@@H](n2cc(F)c(=O)[nH]c2=O)[C@H](O)[C@@H]1O)OCCCCCCCCCCCCCCCC` (stereo partly drawn) [cetyl cetyl FUR] registered an ILS of 127%.

On to `CCCCCCCC/C=C\CCCCCCCCOCC(COP(=O)(O)OC[C@H]1O[C@@H](n2cc(F)c(=O)[nH]c2=O)[C@H](O)[C@@H]1O)OCCCCCCCC/C=C\CCCCCCCC` (stereo partly drawn) [oleyl oleyl FUR], for which the ILS turned out to be 76%.

Take `CCCCCCCCCCCCCCCCCCOCC(COP(=O)(O)OC[C@H]1O[C@@H](n2cc(F)c(=O)[nH]c2=O)[C@H](O)[C@@H]1O)OCCCCCCCCCCCCCCCCCC` (stereo partly drawn) [stearyl stearyl FUR]: the increase in life span (ILS) worked out at 31%.

The compound `CCCCCCCCCCCCCCCCOCC(COP(=O)(O)OC[C@H]1O[C@@H](n2cc(F)c(N)nc2=O)[C@@H](O)[C@@H]1O)OCCCCCCCCCCCCCCCC` (stereo partly drawn) [cetyl cetyl AraFC] returned an increase in lifespan (ILS) of 152%.

For `CCCCCCCCCCCCCCCCCCOCC(COP(=O)(O)OC[C@H]1O[C@@H](n2cc(F)c(N)nc2=O)[C@@H](O)[C@@H]1O)OCCCCCCCCCCCCCCCCCC` (stereo partly drawn) [stearyl stearyl AraFC], the ILS came out at 61%.

As for `CCCCCCCC/C=C\CCCCCCCCOCC(COP(=O)(O)OC[C@H]1O[C@@H](n2cc(F)c(N)nc2=O)[C@@H](O)[C@@H]1O)OCCCCCCCC/C=C\CCCCCCCC` (stereo partly drawn) [oleyl oleeyl AraFC], the ILS was determined as 148%.

`CCCCCCCC/C=C\CCCCCCCCOCC(COP(=O)(O)OCC1=C[C@@H](n2cnc3c(N)ncnc32)[C@H](O)[C@@H]1O)OCCCCCCCC/C=C\CCCCCCCC` (stereo partly drawn) [oleyl oleyl NepA] displayed an ILS of 26%.

In turn, `CCCCCCCCCCCCCCCCOCC(COP(=O)(O)OCC1=C[C@@H](n2cnc3c(N)ncnc32)[C@H](O)[C@@H]1O)OCCCCCCCCCCCCCCCC` (stereo partly drawn) [cetyl cetyl NepA] registered an increase in life span (ILS) of 34.9%.

In turn, `CCCCCCCCCCCCCCCCCCOCC(COP(=O)(O)OCC1=C[C@@H](n2cnc3c(N)ncnc32)[C@H](O)[C@@H]1O)OCCCCCCCCCCCCCCCCCC` (stereo partly drawn) [stearyl stearyl NepA] registered an increase in life span (ILS) of 31%.

Source of the values: US5051499A, “Novel nucleoside-phospholipid conjugate” (Toyo Jozo Kabushiki Kaisha, priority 1986, dated 1991).
